# Results reported in patent publication US9937153B2, “Oral pharmaceutical formulation of omarigliptin” (Merck Sharp & Dohme Corp., priority 2013, dated 2018).
# Tests used:
# [1] = Comparative salt stability of pharmaceutical formulations after 1 week; format: physicochemical; conditions: formulation as in Example 3
# Procedure: Samples were made with 1% Citric Acid or Na2CO3 by first coating a mortar with mannitol. Omarigliptin was then triturated using the mortar and pestle with 0.1000 g mannitol then with 0.1000 g mannitol & 0.1000 g citric acid or Na2CO3 and then with equal amounts mannitol. The triturate was added to the remaining ingredients and blended initially with mortar and pestle and then transferred into a glass bottle and blended with a blender at medium speed for 15 mins. Magnesium stearate was passed through a 250 micron screen and the required quantity was dispensed and added to the powders in the bottle. The mixture was blended for 1 minute at medium speed. Tablets were compressed using a press having ¼″ normal concave punches at 100 mg unit weight:
# Fumarate, phosphate and hydrochloride salts of omarigliptin were made and used in the manufacture of pharmaceutical formulations as described in Example 3. The pharmaceutical formulations containing the fumerate, phosphate and hydrochloride salts of omarigliptin as well as pharmaceutical formulations containing the free base were tested under various conditions for stability.
# [2] = Formulation work on chemical stability of omarigliptin; format: physicochemical
# Excerpt: One concern with developing an oral pharmaceutical formulation of omarigliptin is the chemical stability of the compound. […] Also omarigliptin stability is critically sensitive to drug loading with lower drug loadings becoming increasingly unstable in any formulation drug product. […] This degradation process with respect to free amines is described in Robertson et al., Maillard's Reaction and its Impliations for Amine Drugs in the Pharmaceutical Industry, Digital Edition of American Pharmaceutical Review, Volume 15, Issue 3, April 2012.
Compound,% Area ([1]; 5° C./50% RH closed),% LC ([1]; 5° C./50% RH closed),% Area ([1]; 50° C./75% RH/open),% LC ([1]; 50° C./75% RH/open),Total Degs. (Area %) ([1]; 50° C./75% RH/open),% Area ([1]; 50° C./closed),% LC ([1]; 50° C./closed),Total Degs. (Area %) ([1]; 50° C./closed),sensitivity to oxidation [2],sensitivity to Maillard degradation (browning) ([2]; with excipients or other impurities that contain reducible sugar impurities),sensitivity to acid and base catalyzed hydrolysis ([2]; early formulation work)
"CS(=O)(=O)n1cc2c(n1)CN([C@H]1CO[C@H](c3cc(F)ccc3F)[C@@H](N)C1)C2 [Free Base I, (2R,3S,5R)-2-(2,5-Difluorophenyl)-5-[2-(methylsulfonyl)-2,6-dihydropyrrolo[3,4-c]pyrazol-5(4H)-yl]tetrahydro-2H-pyran-3-amine]",98.8%,88.5%,97.1%,82.0%,1.7 Area %,97.9%,85.9%,0.9 Area %,,,
CS(=O)(=O)n1cc2c(n1)CN([C@H]1CO[C@H](c3cc(F)ccc3F)[C@@H](N)C1)C2.O=C(O)/C=C/C(=O)O [Fumerate],95.9%,79.6%,93.8%,69.5%,2.0 Area %,94.3%,75.9%,1.6 Area %,,,

# Continued, in another order:
% Area ([1]; 5° C./50% RH closed),% LC ([1]; 5° C./50% RH closed),% Area ([1]; 50° C./75% RH/open),% LC ([1]; 50° C./75% RH/open),Total Degs. (Area %) ([1]; 50° C./75% RH/open),% Area ([1]; 50° C./closed),% LC ([1]; 50° C./closed),Total Degs. (Area %) ([1]; 50° C./closed),sensitivity to oxidation [2],sensitivity to Maillard degradation (browning) ([2]; with excipients or other impurities that contain reducible sugar impurities),Compound,sensitivity to acid and base catalyzed hydrolysis ([2]; early formulation work)
98.69%,75.5%,95.3%,62.5%,3.6 Area %,97.6%,71.8%,1.3 Area %,,,CS(=O)(=O)n1cc2c(n1)CN(C1COC(c3cc(F)ccc3F)C(N)C1)C2.Cl (centres unmarked) [HCl],
,,,,,,,,sensitive to oxidation,sensitive to Maillard degradation,"CS(=O)(=O)n1cc2c(n1)CN([C@H]1CO[C@H](c3cc(F)ccc3F)[C@@H](N)C1)C2 [omarigliptin, (2R,3S,5R)-2-(2,5-Difluorophenyl)-5-[2-(methylsulfonyl)-2,6-dihydropyrrolo[3,4-c]pyrazol-5(4H)-yl]tetrahydro-2H-pyran-3-amine]",sensitive to acid and base catalyzed hydrolysis
96.8%,76.5%,92.0%,54.4%,4.8 Area %,94.0%,70.8%,2.9 Area %,,,Phosphate,
